Literature values as cited in patent publication US9950112B2 (priority 2010, dated 2018).

Key:
[1] = propofol concentration, human surgical patients, general anesthesia
[2] = morphine during early resuscitation following serious injuries; reduced from 76%

| Compound | EC50 for awakening [1] | EC50 for orientation [1] | incidence of post-traumatic stress disorder (PTSD) [2] |
| --- | --- | --- | --- |
| CC(C)c1cccc(C(C)C)c1O [propofol] | 1.07 ± 0.13 µg/mL | 0.95 ± 0.19 µg/mL |  |
| CN1CC[C@]23c4c5ccc(O)c4O[C@H]2[C@@H](O)C=C[C@H]3[C@H]1C5 [morphine] |  |  | 61% |
